This assay deals with cGMP-specific 3',5'-cyclic phosphodiesterase PDE5 (Oryctolagus cuniculus). The experiment in a line: Inhibition of phosphodiesterase 5 of rabbit platelets.

Drawing on BindingDB's records for doi:10.1016/j.bmcl.2004.02.040 (Ewha Womans University, 2004), this text covers IC50 for one compound.

The IC50 is the concentration needed to halve the response being measured. A high value points to a need for much substance. As for `CCCOc1ccc(S(=O)(=O)N2CCC(CCP(=O)(O)OCC)CC2)cc1-c1nc2c(CCC)nn(C)c2c(=O)[nH]1` [(2-{1-[3-(1-Methyl-7-oxo-3-propyl-6,7-dihydro-1H-pyrazolo[4,3-d]pyrimidin-5-yl)-4-propoxy-benzenesulfonyl]-piperidin-4-yl}-ethyl)-phosphonic acid monoethyl ester], the IC50 was 0.29 nM.
